Structures can show the parent of a compound that is named as a salt.
Tests used:
[1] = molecular target: T1, PaAstA (Pseudomonas aeruginosa, UniProt P51691); assay: 4-nitrophenolate release, A400; format: biochemical; conditions: 1 mM substrate, pH 7.0, 5 mM CaCl2, 20-25 °C
T1 construct: gene atsA; S1_4 sulfatase

[2] = molecular target: T2, BT4322 (Bacteroides thetaiotaomicron, UniProt Q89ZQ4); assay: thermal shift assay (SYPRO Orange DSF); format: binding; conditions: pH 7.0, 100 mM BTP, 150 mM NaCl, 5% DMSO
T2 construct: gene BT_4322; recombinant in E. coli
T2 sequence (Q89ZQ4 1-308): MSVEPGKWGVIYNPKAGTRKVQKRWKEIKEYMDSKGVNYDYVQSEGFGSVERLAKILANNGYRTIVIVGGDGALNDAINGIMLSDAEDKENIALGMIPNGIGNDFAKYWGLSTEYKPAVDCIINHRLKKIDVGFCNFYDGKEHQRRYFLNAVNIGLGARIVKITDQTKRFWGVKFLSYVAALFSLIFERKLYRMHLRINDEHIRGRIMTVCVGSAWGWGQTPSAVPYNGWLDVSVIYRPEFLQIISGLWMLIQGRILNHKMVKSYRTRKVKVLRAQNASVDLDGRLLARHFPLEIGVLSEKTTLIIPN

[3] = molecular target: T1, PaAstA; assay: 4-nitrophenyl sulfate hydrolysis, A400; also preincubation and jump dilution; format: biochemical; conditions: 1 mM compound, 1 mM 4-nitrophenyl sulfate, pH 7.0, 5 mM CaCl2, 20-25 °C; irreversible, covalent
[4] = molecular target: T3, BT1636^3S-Gal (Bacteroides thetaiotaomicron, UniProt Q8A789, S77C); assay: microfluidic mobility shift desulfation assay after overnight preincubation and dilution; format: biochemical; conditions: 1 mM compound, only after preincubation; BODIPY-labelled sulfated substrate, 5 mM CaCl2, 28 °C; formylglycine form
T3 construct: gene BT_1636; recombinant in E. coli TUNER, cobalt IMAC
T3 sequence (Q8A789 23-509 S77C): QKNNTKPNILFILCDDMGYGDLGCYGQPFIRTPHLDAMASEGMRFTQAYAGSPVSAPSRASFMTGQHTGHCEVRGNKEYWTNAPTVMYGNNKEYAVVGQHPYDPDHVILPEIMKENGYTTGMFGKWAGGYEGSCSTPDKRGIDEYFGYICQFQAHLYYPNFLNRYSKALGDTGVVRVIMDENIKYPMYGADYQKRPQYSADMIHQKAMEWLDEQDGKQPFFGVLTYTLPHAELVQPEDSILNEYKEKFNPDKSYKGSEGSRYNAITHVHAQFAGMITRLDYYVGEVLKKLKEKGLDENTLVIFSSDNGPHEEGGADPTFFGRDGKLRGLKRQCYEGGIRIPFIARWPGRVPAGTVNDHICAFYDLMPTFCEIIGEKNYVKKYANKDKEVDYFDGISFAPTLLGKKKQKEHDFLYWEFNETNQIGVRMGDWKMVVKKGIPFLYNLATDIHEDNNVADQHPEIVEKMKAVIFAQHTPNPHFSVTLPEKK

T1 sequence (P51691 2-536): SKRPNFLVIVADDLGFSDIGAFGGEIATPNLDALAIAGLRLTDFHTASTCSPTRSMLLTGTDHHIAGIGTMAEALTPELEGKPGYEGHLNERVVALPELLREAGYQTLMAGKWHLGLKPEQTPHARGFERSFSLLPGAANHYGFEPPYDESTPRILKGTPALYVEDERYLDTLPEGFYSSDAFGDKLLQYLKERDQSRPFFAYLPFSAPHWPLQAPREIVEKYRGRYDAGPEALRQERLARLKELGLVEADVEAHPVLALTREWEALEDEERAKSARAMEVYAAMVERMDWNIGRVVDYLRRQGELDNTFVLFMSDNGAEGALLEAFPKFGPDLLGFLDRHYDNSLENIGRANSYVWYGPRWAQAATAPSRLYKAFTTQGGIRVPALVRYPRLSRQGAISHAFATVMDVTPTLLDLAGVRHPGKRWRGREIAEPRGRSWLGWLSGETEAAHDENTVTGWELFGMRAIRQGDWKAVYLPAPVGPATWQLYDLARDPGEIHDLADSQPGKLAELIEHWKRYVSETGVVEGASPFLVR

## O=[N+]([O-])c1ccc(OS(=O)(=O)O)cc1 [4-nitrophenyl sulfate]
[1]
  4-nitrophenolate release, A400: rapidly hydrolyzed by the family S1 steroid sulfatase PaAsta

## Nc1ncnc2c1ncn2[C@@H]1O[C@H](COP(=O)(O)OP(=O)(O)OP(=O)(O)O)[C@@H](O)[C@H]1O [ATP]
[2]; stabilizing
  dTm: The substrate ATP also stabilized BT4322

## NS(=O)(=O)Oc1ccc(-c2ccccc2)cc1 [compound 2, 4-phenylphenyl sulfamate]
[3]
  % inhibition at 1 mM: all arylsulfamates were broadly equivalent in their ability to completely inhibit both enzymes

## COc1cc2ccccc2cc1OS(N)(=O)=O [compound 17, arylsulfamate 17]
[3]
  % inhibition at 1 mM: all arylsulfamates were broadly equivalent in their ability to completely inhibit both enzymes

## O=S(=O)(F)c1ccccc1 [compound 23, aryl sulfonylfluoride 23]
[4]
  % inhibition at 1 mM: > 50%

## O=c1c2ccccc2[nH]c(=S)n1CCN1CCC(=C(c2ccc(F)cc2)c2ccc(F)cc2)CC1 [diacylglycerol kinase inhibitor II]
[2]; stabilizing
  dTm: DAGK-II caused a concentration-dependent stabilization

## Cc1nc2sccn2c(=O)c1CCN1CCC(=C(c2ccccc2)c2ccc(F)cc2)CC1 [diacylglycerol kinase inhibitor I]
[2]; destabilizing
  dTm: The DAGK-I inhibitor also caused concentration-dependent destabilization
